According to PMC7911295, “Metabolism of Zearalenone in the Rumen of Dairy Cows with and without Application of a Zearalenone-Degrading Enzyme” (Toxins, 2021):
Like-named read-outs stand apart in the source and are kept apart here.

Columns and labels:
[1] = Feeding trial in rumen-fistulated dairy cows: ZEN and ZEN metabolites in rumen fluid from reticulum, dorsal mat layer and ventral sac; type: in vivo, Holstein Friesian cows; settings: for Traces still detected at (time after administration of ZEN-contaminated concentrate): time point 0 h of the ZEN+ZenA treatment; for Tmax: female, Holstein Friesian, bovine, in vivo, po, 5 mg, read-out: Time of peak concentration post-administration (converted); for Percentage of concentration relative to the sum of ZEN and ZEN metabolite concentrations: reticulorumen; for Time to elimination: ventral sac and reticulum
Source text: (§1) Ruminal metabolism of ZEN with and without supplementation of ZenA was investigated in four rumen-fistulated Holstein Friesian cows (sex: female; age at start: 5.9 ± 1.0 years; body weight at start: 863 ± 65 kg; physiological stage: non-lactating; general health: good, non-gestating; identification procedure: ear tag 4-digit code). The cows were part of the dairy herd of VetFarm (Teaching and Research Farm) of the University of Veterinary Medicine Vienna in Kremesberg, Austria. All procedures related to these experiments were performed according to Austrian law and following the European Guidelines for the Care and Use of Animals for Research Purpose. The animal experiment was approved by ethics and animal welfare commission of the University of Veterinary Medicine, Vienna and the Austrian Federal Ministry of Education, Science and Research (68.205/0156-WF/V/3b/2017, 30.08.2017).
(§2) In our trial setup, each animal was considered an experimental unit (n = 4). Each animal received the same treatment and served as its own control. First, each animal received ZEN-contaminated concentrate feed. Following a 48-h washout period, each animal received ZEN-contaminated concentrate feed supplemented with ZenA. In brief, for acclimatization, on the day prior to the start of the feeding trial, each animal was manually fed 4 × 500 g of control concentrate (Table 4 and Table 5). Thereafter, animals were manually fed (i) 1 × 500 g concentrate contaminated with ZEN and 3 × 500 g control concentrate on experimental day 1 (ZEN treatment), (ii) 4 × 500 g control concentrate on day 2 (ZEN washout), (iii) 1 × 500 g ZEN-contaminated concentrate supplemented with ZenA and 3 × 500 g control concentrate on day 3 (ZEN+ZenA treatment), and (iv) 4 × 500 g control concentrate on day 4 (ZEN+ZenA washout; Table 6). Animals were treated and assessed in the same random order at each experimental time point.
For production of ZEN-contaminated concentrate feed, lyophilizate of ZEN with maltodextrin as a carrier was prepared. To this end, in three parallel preparations, 50 mg ZEN (Fermentek, Jerusalem, Israel) was dissolved in 1 L RO water (pH 12; adjusted with NaOH) using a magnetic stirrer set to 400 rpm and 37 °C for 20 min. Subsequently, 100 g maltodextrin DE19 (Agrana, Vienna, Austria) was added and dissolved by stirring (400 rpm) at room temperature for 10 min. The solution was lyophilized. Lyophilizate was mixed into concentrate feed at an inclusion rate of 2%. The final concentration of ZEN in feed was aimed to be 10 mg/kg and was verified using HPLC-MS/MS analysis as described below. For production of ZEN-contaminated, ZenA-supplemented concentrate, a zearalenone hydrolase ZenA preparation (ZENzyme®; EC 3.1.1.-; BIOMIN Holding GmbH, Getzersdorf, Austria) was mixed into ZEN-contaminated concentrate to achieve an activity of 128 U/kg feed. Same as in the in vitro trial, 1 U of ZenA was defined as the enzyme activity that hydrolyzes 1 μmol ZEN per minute from 15.71 µM ZEN in Teorell Stenhagen buffer adjusted to pH 7.5 containing 0.1 mg/mL bovine serum albumin at 37 °C.
On days 1 and 3 of the trial (ZEN and ZEN+ZenA treatment, respectively), ruminal digesta samples were taken from reticulum, ventral sac and dorsal mat layer (Figure 3) immediately before concentrate feeding (0 h), as well as 15 min, 1 h, 2 h, 4 h, 7 h and 10 h after concentrate feeding (Table 6). On days 2 and 4 of the trial (washout days), ruminal digesta samples were taken immediately before first concentrate feeding (0 h), as well as 10 h after first concentrate feeding (Table 6). Ruminal digesta samples (10 mL) were taken via a rumen fistula from reticulum and ventral sac (10 cm above the bottom of the rumen) using a pump as described previously. Samples were taken from the dorsal mat layer 20 cm below the gas phase and rumen fluid was obtained by manually squeezing the samples as described previously. Samples were mixed 1:2 with acetonitrile by vortexing. […]

[2] = Feeding trial in rumen-fistulated dairy cows: ZEN and ZEN metabolites in feces; type: in vivo, Holstein Friesian cows; settings: feces
Source text: as §1, §2
On days 1 and 3 of the experiment, feces samples were taken from the rectum immediately before concentrate feeding (0 h), as well as 10 h after concentrate feeding (Table 6) and stored at −20 °C. Aliquots (500 mg) of thoroughly homogenized feces samples were extracted for HPLC-MS/MS analysis according to the method described by Binder and coworkers.
HPLC-MS/MS analysis of ZEN, α-ZEL, β-ZEL, HZEN and DHZEN in rumen fluid and feces was performed as described for the in vitro rumen fermentation experiment (see section “In Vitro Rumen Fermentation Experiment”, subsection “Analysis of ZEN and its Metabolites”), with the following modifications. Chromatographic separation was performed with a flow rate of 0.6 mL/min, a duration of 4 min and an injection volume was 1 µL. The gradient started at 30% B which was held for 0.3 min. Subsequently, the proportion of B was increased to 80% from 0.3 to 2 min, and increased to 100% from 2 to 2.1 min. […] LODs for ZEN, α-ZEL, β-ZEL, HZEN and DHZEN in rumen fluid were 2.83 nmol/L (0.9 µg/L), 2.81 nmol/L (0.9 µg/L), 2.81 nmol/L (0.9 µg/L), 2.68 nmol/L (0.9 µg/L) and 10.27 nmol/L (3 µg/L), respectively. LOQs for ZEN, α-ZEL, β-ZEL, HZEN and DHZEN in rumen fluid were 9.43 nmol/L (3 µg/L), 9.37 nmol/L (3 µg/L), 9.37 nmol/L (3 µg/L), 8.93 nmol/L (3 µg/L) and 30.81 nmol/L (9 µg/L), respectively. LODs for ZEN, α-ZEL, β-ZEL, HZEN and DHZEN in feces were 0.03 nmol/g (8.4 ng/g), 0.03 nmol/g (8.4 ng/g), 0.03 nmol/g (8.4 ng/g), 0.03 nmol/g (8.4 ng/g) and 0.10 nmol/g (28 ng/g), respectively. LOQs for ZEN, α-ZEL, β-ZEL, HZEN and DHZEN in feces were 0.09 nmol/g (28 ng/g), 0.09 nmol/g (28 ng/g), 0.09 nmol/g (28 ng/g), 0.08 nmol/g (28 ng/g) and 0.29 nmol/g (84 ng/g), respectively.

[3] = test system: estrogen receptors; design: method as in doi:10.2903/j.efsa.2016.4425; settings: cited from earlier work
[4] = dorsal mat layer, ZEN treatment
[5] = ZEN treatment, 15 min after feeding, from median of 3 locations
[6] = reticulum and ventral sac, ZEN treatment
[7] = ZEN+ZenA treatment, 0 h (48 h after ZEN treatment)

SMILES	Low concentrations still detected at (time after concentrate feeding) [1, 4]	Traces still detected at (time after administration of ZEN-contaminated concentrate) ([1]; dorsal mat layer)	Percentage of concentration relative to the sum of ZEN and ZEN metabolite concentrations [1, 5]	Percentage of concentration relative to the sum of ZEN and ZEN metabolite concentrations ([1]; ZEN treatment, 1 h)	Percentage of concentration relative to the sum of ZEN and ZEN metabolite concentrations ([1]; ZEN treatment, 4 h)	Percentage of concentration relative to the sum of ZEN and ZEN metabolite concentrations ([1]; ZEN treatment, 7 h)	Percentage of concentration relative to the sum of ZEN and ZEN metabolite concentrations ([1]; ZEN treatment, 10 h)	Percentage of concentration relative to the sum of ZEN and ZEN metabolite concentrations ([1]; ZEN treatment, 24 h)	Percentage of concentration relative to the sum of ZEN and ZEN metabolite concentrations ([1]; ZEN+ZenA treatment, 15 min)	Percentage of concentration relative to the sum of ZEN and ZEN metabolite concentrations ([1]; ZEN+ZenA treatment, 1 h)	Percentage of concentration relative to the sum of ZEN and ZEN metabolite concentrations ([1]; ZEN+ZenA treatment, 4 h)	Percentage of concentration relative to the sum of ZEN and ZEN metabolite concentrations ([1]; ZEN+ZenA treatment, 7 h)	Percentage of concentration relative to the sum of ZEN and ZEN metabolite concentrations ([1]; ZEN+ZenA treatment, 10 h)	Detected up until (time after concentrate feeding) [1, 6]	Time to elimination ([1]; ZEN treatment)	Percentage of concentration relative to the sum of ZEN and ZEN metabolite concentrations ([2]; ZEN treatment, 10 h)	Percentage of concentration relative to the sum of ZEN and ZEN metabolite concentrations [2, 7]	Percentage of concentration relative to the sum of ZEN and ZEN metabolite concentrations ([2]; ZEN+ZenA treatment, 10 h)	Estrogenic potency relative to ZEN [3]	further results
C[C@H]1CCCC(=O)CCC/C=C/c2cc(O)cc(O)c2C(=O)O1 [ZEN, zearalenone]	34 h	48 h	100.0%	84.8%	84.1%	78.7%	74.4%	50.2%	5.9%	0.0 (traces) %	0.0 (traces) %	0.0 (traces) %	0.0 (traces) %	24 h	≤ 34 h	11.0%	15.6%	0.0 (traces) %		Tmax [1, 4]: 1 h; Tmax ([1]; reticulum, ZEN treatment (5 mg ZEN oral)): 0.25 h; Tmax ([1]; ventral sac, ZEN treatment): 1 h
C[C@H]1CCC[C@H](O)CCC/C=C/c2cc(O)cc(O)c2C(=O)O1 [α-ZEL, α-zearalenol]	34 h	48 h	0.0 (traces) %	7.6%	15.9%	21.3%	25.6%	49.8%	0.0 (traces) %	0.0%	0.0%	0.0%	0.0 (traces) %	24 h	≤ 34 h	10.9%	15.5%	9.0%	60 times	First detected (time after concentrate feeding) [1, 4]: 1 h; First detected (time after concentrate feeding) [1, 6]: 0.25 h; Detection in rumen fluid ([1]; ventral sac, ZEN+ZenA treatment): not detected
C[C@H]1CCC[C@@H](O)CCC/C=C/c2cc(O)cc(O)c2C(=O)O1 [β-ZEL, β-zearalenol]			0.0 (traces) %	7.6%	0.0 (traces) %	0.0 (traces) %	0.0%	0.0%	0.0%	0.0%	0.0%	0.0%	0.0%		≤ 34 h	78.1%	69.0%	59.1%	0.2 times	Detection in rumen fluid ([1]; any reticulorumen location, ZEN+ZenA treatment): not detected; Period of detection at low concentrations [1, 4]: 1 to 7 h; Time of detection at low concentrations ([1]; ventral sac, ZEN treatment): 1 h
